Source: patent publication US5089479A, “Adhesion of Mycoplasma pneumoniae and Mycoplasma hominus to sulfatide” (priority 1988, dated 1992)
pIC50: −log10 of the molar value. Entries after “also recorded” stand apart in the source; their conditions may differ.

Tests used:
Set-up in all cases: species or system Mycoplasma pneumoniae strain M129
[1] = system: M. pneumoniae binding to laminin; assay: Inhibition of M. pneumoniae binding to laminin adsorbed on plastic
Procedure: Glycoproteins dissolved in 0.01 M sodium phosphate buffer, pH 7.4, containing 150 mM NaCl, 1 mM CaCl2, and 0.01% NaN3 were adsorbed onto plastic polyvinylchloride […] microtiter plates by incubation for 16 hours at 4° C. The unbound proteins were removed, and the wells were filled with tris-BSA and incubated for 30 minutes at room temperature. The wells were rinsed with RPMI1640 containing 25 mM HEPES, pH 7.3, and 1% bovine serum albumin. M. pneumoniae strain M129 labelled with [^3 H]-palmitate were dispersed in RPMI-BSA by passing four times through a 26 gauge needle, and 50 μl of the suspension was applied to the wells. After incubation for 60 minutes at 37° C., the wells were washed five times with saline and the labelled M. pneumoniae bound to the proteins were quantified by scintillation counting in Aquasol.
For inhibition studies, sugars in 25 μl of RPMI-BSA were added to wells coated with 10 μg/ml laminin followed by 25 μl of [^3 H]-M. pneumoniae. Binding was determined to both laminin-coated and uncoated wells in triplicate at each inhibitor concentration and in the absence of inhibitor. In some experiments, the adsorbed proteins were pretreated with neuraminidase. After adsorption of the proteins and incubation in tris-BSA, the wells were rinsed three times with 50 mM sodium acetate, pH 5.5, containing 150 mM NaCl, 5 mM CaCl2, 1 mg/ml bovine serum albumin, and 1 mM phenylmethanesulfonyl fluoride. The wells were incubated with 0.05 units/ml neuraminidase in the same buffer or with buffer without enzyme overnight at 20° C. The wells were rinsed three times with tris-BSA, and M. pneumoniae binding was determined as described above.

M. pneumoniae [2] = assay: Solid-phase binding of [3H]-M. pneumoniae to purified glycolipids immobilized in microtiter plates
Procedure: (§1) Virulent M. pneumoniae strain M129, passage 5-15, were grown and metabolically labelled with [^3 H]palmitic acid, 12-17 Ci/mole, as described by Chandler et al. in Infect. Immun. 37: 942, 1982. The organisms were passed four times through a 26 gauge needle and suspended to approximately 10^7 cpm/ml of degassed RPMI 1640 medium containing 1% bovine serum albumin and 25 mM HEPES, pH 7.3.
The binding of M. pneumoniae to purified glycolipids immobilized in microtiter plates was measured as described by Krivan et al. in Proc. Natl. Acad. Sci., op. cit. Purified glycolipids were serially diluted in 25 μl of methanol containing 0.1 μg each of the auxiliary lipids cholesterol and phosphatidylcholine. After the solutions were dried by evaporation, the wells were filled with TBS-BSA, emptied after one hour, rinsed with RPMI-BSA, and incubated with 25 μl of [^3 H]-M. pneumoniae, approximately 10^7 cpm/ml RPMI-BSA. After incubation for two hours at 37° C., unless otherwise stated, the wells were washed five times with saline and bound M. pneumoniae was quantified by scintillation counting in Aquasol. For inhibition studies, various polysaccharides were serially diluted in […] of [^3 H]-M. pneumoniae.
To obtain the results shown in FIG. 2, lipids in […] each of the auxiliary lipids cholesterol and phosphatidylcholine were evaporated in flat bottom wells of polyvinylchloride microtiter plates. The wells were blocked with 1% albumin for one hour, washed twice with RPMI-BSA, and incubated at 25° C. with 25 μl of [^3 H]-M. pneumoniae, approximately […]. After two hours, the wells were washed five times with saline, cut from the plate, and bound radioactivity was quantified in a scintillation counter. In control experiments, organisms were incubated with auxiliary lipids only to correct for nonspecific binding, typically <1% of the total radioactivity added. M. pneumoniae binding was determined in RPMI-BSA for sulfatide ( .circle. ), lactosylceramide, paragloboside, and cholesterol sulfate, ceramide trihexoside, globoside, GM1, GM2, or GM3 ( .largecircle.).
Binding of [^3 H]-M. pneumoniae was determined in RPMI-BSA for two hours at 4° C., 25° C. ( .circle. ), 37° C., and at 37° C. in BSA without RPMI (Δ).

M. pneumoniae [3] = assay: Mycoplasma overlay assay: binding of [3H]-M. pneumoniae to glycolipids on thin layer chromatograms; conditions: for binding of M. pneumoniae to glycolipid (in words): thin layer chromatogram overlay
Procedure: as §1
M. pneumoniae were bound to glycolipids separated on thin-layer chromatograms as described in detail for other bacteria by Krivan et al., Proc. Natl. Acad. Sci. 85: 6157-6161, 1988, and Krivan et al., Arch. Biochem. Biophys. 260:493-496, 1988. Briefly, glycolipids were separated by thin-layer chromatography on aluminum-backed silica gel high-performance plates developed with chlooform:methanol:0.25% CaCl2 in water (60:35:8). After chromatography, the plates were coated with 0.1% polyisobutylmethacrylate, soaked in 0.05 M Tris-HCl, pH 7.6, containing […] sodium chloride, 5 mM CaCl2, 0.2 mM phenylmethane-sulfonyl fluoride, and 1% bovine serum albumin (TBS-BSA) and incubated for three hours at 25° C. with 60 μl/cm^2 of [^3 H]-labelled M. pneumoniae, approximately 10^7 cpm/ml of RPMI-BSA. The plates were gently washed five times in 0.01 M sodium phosphate, pH 7.2, containing 0.15 M sodium chloride (PBS) to remove unbound organisms, dried, and exposed for 24 hours to Ultrofilm ^3 H (2208-190) high speed film.
To obtain the results shown in FIG. 1, glycolipids were chromatographed on aluminum-backed silica gel HPTLC plates developed in chloroform/methanol/0.25% CaCl2 in water, 60:35:8. The plates were coated with plastic, soaked in Tris-BSA, and incubated for three hours at 25° C. with [^3 H]-palmitate-labelled M. pneumoniae suspended in RPMI 1640 containing 1% BSA and 25 mM HEPES, pH 7.3, as described above (Panel A), or sprayed with orcinol reagent to identify glycolipids (Panel B). Lane a, acidic glycolipid standards sulfatide (0.5 μg), GM3 (2 μg), GM2 (2 μg), GD1a (2 μg), GD1b (2 μg), GT1b (2 μg); lane b, neutral standards galactosyl ceramide (4 μg), lactosylceramide (4 μg), globotriaosylceramide (2 μg), c2(0.5 μg). and c3 (o.1 μg); lane d, seminolipid (2 μg); lane e, cholesterol 3 -sulfate (2 μg); lane f, human trachea acidic glycolipids from 100 mg wet weight […]; lane h, α2-3sialylparagloboside (2 μg); lane 1, I-active monosialylganglioside from bovine erythrocytes (2 μg).

| Molecule | Binding % of control ([1]; 5 mM inhibitor, laminin substrate, 60 min) | relative inhibitory activity, binding to laminin (in words) ([1]; compared with 3'-sialyllactose or other fetuin oligosaccharide fractions) | pIC50 ([1]; oligosaccharide concentrations as sialic acid, read-out: I.D.50, substrate laminin) | binding activity at 4° C. (M. pneumoniae [2]; 4° C., RPMI-BSA) | binding activity at 25° C. (relative to 37° C.) (M. pneumoniae [2]; 25° C., RPMI-BSA) | amount of sulfatide required for half-maximum binding (M. pneumoniae [2]; 37° C., RPMI-BSA) | binding in nutrient-deficient medium (M. pneumoniae [2]; 37° C., Tris-BSA without RPMI) | binding in RPMI medium at 37° C. (M. pneumoniae [2]; RPMI medium, 37° C. / physiological temperatures) | binding of M. pneumoniae to immobilized lipid (in words) (M. pneumoniae [2]; microtiter plate, up to 10 μg per well) | Binding (ability to bind M. pneumoniae) (M. pneumoniae [3]; Table I, class by amount of lipid bound) | binding of M. pneumoniae to glycolipid (in words) (M. pneumoniae [3]; listed as galactosyl ceramide I^3 -sulfate) | binding of M. pneumoniae to glycolipid (in words) (M. pneumoniae [3]; listed as sulfatide) | amount of glycolipid detected by M. pneumoniae overlay (M. pneumoniae [3]; thin layer chromatogram, lane C3) [ng] |
| --- | --- | --- | --- | --- | --- | --- | --- | --- | --- | --- | --- | --- | --- |
| CC(=O)NC1C(O)CC(OCC2OC(OC3C(CO)OC(O)C(O)C3O)C(O)C(O)C2O)(C(=O)O)OC1C(O)C(O)CO (stereo not shown) [6'-sialyllactose] | 54 % of control | at least ten-fold less active | < 2.30 |  |  |  |  |  |  |  |  |  |  |
| galactosyl ceramide-I^3 -sulfate [Sulfatide] |  |  |  | almost completely abolished; also recorded: minimal | about five times lower | about 0.25 μg | almost completely abolished; also recorded: bound poorly | maximal | good dose response; also recorded: bind to sulfatide adsorbed on plastic; also recorded: sensitive and dose-dependent | +++ (positive binding to less than 0.5 μg) | does not discriminate between galactosyl ceramide I^3 -sulfate and its unnatural 6-sulfate isomer | bound strongly; also recorded: bound avidly | 100 |
